Measurements published in PubChem BioAssay (NCI).
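Growth conditions: 96-well plates. Treatment: test compound, 48 hours, 5 concentrations. Analysis: linear interpolation between bracketing concentrations; unreached endpoints set to highest concentration. The concentration for full growth arrest is given as TGI.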

Tests used:
Assay in all cases: NCI-60 cell line screen, 48 h
[1] = system: CCRF-CEM leukemia
[2] = system: HOP-92 NSCLC
[3] = system: 786-0 renal
[4] = system: DU-145 prostate
[5] = system: HCT-15 colon
[6] = system: NCI/ADR-RES ovarian
[7] = system: A498 renal
[8] = system: HS 578T breast
[9] = system: HOP-62 NSCLC
[10] = system: EKVX NSCLC
[11] = system: HCT-116 colon
[12] = system: SNB-75 CNS
[13] = system: SF-268 CNS
[14] = system: UACC-257 melanoma

SMILES | TGI [1] | TGI [2] | TGI [3] | TGI [4] | TGI [5] | TGI [6] | TGI [7] | TGI [8] | TGI [9] | TGI [10] | TGI [11] | TGI [12] | TGI [13] | TGI [14]
COc1ccc(/C=C2\N=C(SC)N(CN3CCOCC3)C2=O)cc1 | > 100 µM | 67.4 µM | > 100 µM | > 100 µM | > 100 µM | > 100 µM | > 100 µM | > 100 µM | > 100 µM | > 100 µM | > 100 µM | > 100 µM | > 100 µM | –
O=C(Nc1nc(C23CC4CC(CC(C4)C2)C3)cs1)c1cc2ccc(O)cc2oc1=O | 68.1 µM | 15.3 µM | 23.8 µM | > 100 µM | 47.6 µM | 48.5 µM | 28.6 µM | 37.8 µM | 36.8 µM | 43.3 µM | 25.6 µM | – | 39.9 µM | 44.1 µM
COC(CNC(=O)C(C)NC(=O)/C=C/c1ccccc1)OC (stereo not given) | > 100 µM | > 100 µM | > 100 µM | > 100 µM | > 100 µM | > 100 µM | – | > 100 µM | – | > 100 µM | > 100 µM | > 100 µM | > 100 µM | > 100 µM
O=C1C(c2c(O)[nH]c3ccc(F)cc23)=Nc2ccccc21 | > 100 µM | 65.6 µM | > 100 µM | > 100 µM | > 100 µM | > 100 µM | – | > 100 µM | > 100 µM | > 100 µM | > 100 µM | 15.1 µM | > 100 µM | > 100 µM
Cn1ccc(C(=O)NCCN(CCNC(=O)c2ccn(C)c(=O)c2O)CCNC(=O)c2cccc(=O)n2O)c(O)c1=O | > 100 µM | > 100 µM | > 100 µM | > 100 µM | > 100 µM | > 100 µM | > 100 µM | > 100 µM | > 100 µM | – | > 100 µM | > 100 µM | > 100 µM | > 100 µM
COc1ccc(P2(=S)OC(C)(C)C(C)(C)O2)cc1 | > 100 µM | > 100 µM | > 100 µM | > 100 µM | > 100 µM | > 100 µM | – | > 100 µM | > 100 µM | > 100 µM | > 100 µM | > 100 µM | – | > 100 µM
COc1ccc(C(OCC2OC(n3cc(C)c(=O)[nH]c3=O)CC2n2cc(Cn3cc(Cl)c(=O)[nH]c3=O)nn2)(c2ccccc2)c2ccccc2)cc1 (stereo not given) | – | > 100 µM | > 100 µM | > 100 µM | > 100 µM | > 100 µM | > 100 µM | > 100 µM | > 100 µM | > 100 µM | > 100 µM | > 100 µM | > 100 µM | > 100 µM
CN1CCN(C(=S)N2CCN(C)CC2)CC1 | – | > 100 µM | > 100 µM | > 100 µM | > 100 µM | > 100 µM | > 100 µM | > 100 µM | > 100 µM | > 100 µM | > 100 µM | > 26.3 µM | > 100 µM | > 100 µM
O=Cc1[nH]c(=O)[nH]c(=O)c1C(=O)O | > 100 µM | > 100 µM | > 100 µM | > 100 µM | > 100 µM | > 100 µM | – | > 100 µM | > 100 µM | > 100 µM | > 100 µM | > 100 µM | > 100 µM | > 100 µM
Cc1c(N=Nc2ccc(Cl)cc2)c(-c2ccccc2)n(C2OC(CO)C(O)C(O)C2O)c(=S)c1C#N (stereo not given) | 87.5 µM | 28.8 µM | 36.7 µM | 39.4 µM | 33.9 µM | 32.8 µM | 21.5 µM | 51.6 µM | 34.4 µM | – | 28.2 µM | 32.7 µM | 44.8 µM | 54 µM
COc1cc2c(C)cc(O)cc2c2cc(O)c(C)cc12 | 18.2 µM | 22.3 µM | 17.7 µM | 20.9 µM | 17.9 µM | 30.4 µM | 21.3 µM | 53.8 µM | 15.5 µM | 22.6 µM | 20.7 µM | – | 29.6 µM | 22.8 µM
N#Cc1c(N)n(-c2cccc(C(=O)O)c2)c(=O)c2cc([N+](=O)[O-])ccc12 | – | > 100 µM | > 100 µM | > 100 µM | > 100 µM | > 100 µM | > 100 µM | > 100 µM | – | – | > 100 µM | > 100 µM | > 100 µM | > 100 µM
C/C=C(/C)C(=O)O[C@@H]1CCN2CC[C@H](COC(=O)/C(=C/C)CO)C12 (stereo not given in full) | > 100 µM | > 100 µM | > 100 µM | > 100 µM | > 100 µM | > 100 µM | – | > 93.4 µM | > 100 µM | > 100 µM | > 100 µM | > 100 µM | > 100 µM | 99.7 µM
